Data on 13 compounds can be found in patent US7429571B2, “Therapeutic furopyrimidines and thienopyrimidines” (BioCryst Pharmaceuticals, Inc., priority 2004, dated 2008).

Tested on in one data set: not given
Details: not given
On to `OC[C@H]1O[C@@H](c2coc3c(N4CCCC4)ncnc23)[C@H](O)[C@@H]1O`, for which the melting point came out at 198 °C.
`C[C@@]1(O)[C@H](O)[C@@H](CO)O[C@H]1c1coc2c(N(N)CCO)ncnc12` registered a melting point of 84 to 92 °C.
On to `CN(N)c1ncnc2c([C@@H]3O[C@H](CO)[C@@H](O)[C@@]3(C)O)coc12`, for which the melting point is 70 to 84 °C.
In turn, `C[C@@]1(O)[C@H](O)[C@@H](CO)O[C@H]1c1coc2c(=O)[nH]c(N)nc12` yielded a melting point of 80 to 84 °C.
For the compound `CNc1ncnc2c([C@@H]3O[C@H](CO)[C@@H](O)[C@H]3O)coc12`, the melting point is 88 to 100 °C.
Compound `CCNc1ncnc2c([C@@H]3O[C@H](CO)[C@@H](O)[C@H]3O)coc12` came in with a melting point of 76 to 88 °C.
For the compound `CC(C)Nc1ncnc2c([C@@H]3O[C@H](CO)[C@@H](O)[C@H]3O)coc12`, the melting point is 58 to 80 °C.
Compound `CN(C)c1ncnc2c([C@@H]3O[C@H](CO)[C@@H](O)[C@H]3O)coc12` yielded a melting point of 210 °C.
`CCCNc1ncnc2c([C@@H]3O[C@H](CO)[C@@H](O)[C@H]3O)coc12` returned a melting point of 58 to 80 °C.
In turn, `OC[C@H]1O[C@@H](c2coc3c(NC4CC4)ncnc23)[C@H](O)[C@@H]1O` came in with a melting point of 88 to 100 °C.
On to `OC[C@H]1O[C@@H](c2coc3c(N4CCC4)ncnc23)[C@H](O)[C@@H]1O`, for which the melting point worked out at 192 °C.
Still for that read-out and setting: the figure for `COC(=O)C(NP(=O)(OC[C@H]1O[C@@H](c2coc3c(N)ncnc23)[C@](C)(O)[C@@H]1O)Oc1ccccc1)C(C)C` (stereo in doubt) is 58 to 62 °C.

The test system of the next data set is HCV. Particulars: patients, sole treatment; cited from earlier work.
Regarding `NC(=O)c1ncn([C@@H]2O[C@H](CO)[C@@H](O)[C@H]2O)n1` [Ribavirin, 1-β-D-ribofuranosyl-1-1,2,4-triazole-3-carboxamide], the “effect on serum levels of HCV-RNA” value was “does not lower serum levels of HCV-RNA”.

The data set is the same for the next values; noted with them: ribavirin alone; cited from earlier work.
Consider `NC(=O)c1ncn([C@@H]2O[C@H](CO)[C@@H](O)[C@H]2O)n1` [Ribavirin, 1-β-D-ribofuranosyl-1-1,2,4-triazole-3-carboxamide], for which the “patients in whom serum amino transferase levels are reduced to normal” value is reported as 40%.

Broadly, the melting point is the temperature of the solid-liquid transition.
